According to ChEMBL document CHEMBL5614418, “Discovery of novel dihydropyrrolidone-thiadiazole compound crosstalk between the YycG/F two-component regulatory pathway and cell membrane homeostasis to combat methicillin-resistant Staphylococcus aureus” (Eur J Med Chem, 2024):
In brackets after ≈: the same amount, converted by molar mass. Activity calls are given as the source filed them. The calls are words filed in the database; no cut-off is given here.

Experiments:
[1] = test system: Staphylococcus epidermidis; assay: Inhibition of bacterial growth in Staphylococcus epidermidis SE1457 at MIC concentration measured upto 16 hrs; format: functional
[2] = Toxicity in BALB/c mouse assessed as change in K+ level at 50 mg/kg, ip measured after 1 to 3 days; format: organism-based; settings: in vivo, time 1-3 day
[3] = test system: Staphylococcus epidermidis; assay: Synergistic bactericidal activity against Staphylococcus epidermidis SE1457 assessed as persister cells killing by measuring log reduction in bacterial count at 8 times MIC measured after 72 hrs in presence of daptomycin; format: functional
Staphylococcus aureus [4] = assay: Synergistic antibacterial activity against methicillin resistant Staphylococcus aureus USA300 in presence of linezolid; format: functional, organism-based
Staphylococcus aureus [5] = assay: Antibacterial activity against methicillin sensitive Staphylococcus aureus SA113 assessed as increase in membrane permeability at 1 to 4 times MIC incubated for 30 mins by PI staining based fluorescence assay; format: functional, organism-based
Staphylococcus aureus [6] = assay: Antibacterial activity against methicillin sensitive Staphylococcus aureus SA113 assessed as fold increase in MIC in presence of phosphatidyl ethanolamine by chequerboard microdilution assay; format: functional
Staphylococcus aureus [7] = assay: Inhibition of biofilm formation in methicillin resistant Staphylococcus aureus YUSA145 at 1/2 MIC incubated for 16 hrs by SEM analysis; format: functional, organism-based
[8] = Toxicity in BALB/c mouse assessed as change in Na+ level at 50 mg/kg, ip measured after 1 to 3 days; format: organism-based; settings: in vivo, time 1-3 day
Staphylococcus aureus [9] = assay: Antibacterial activity against methicillin resistant Staphylococcus aureus YUSA145; format: functional
Staphylococcus aureus [10] = assay: Antibacterial activity against methicillin resistant Staphylococcus aureus USA300 infected in BALB/c mouse wound model assessed as log reduction in wound bacterial load at 20 mg/kg, ip administered every 12 hrs for 3 times and measured after 48 hrs in presence of DAP; format: functional
Staphylococcus aureus [11] = assay: Downregulation of arcC1 gene expression level in methicillin sensitive Staphylococcus aureus SA113 at 1/2 MIC by RT-qPCR analysis; format: functional
[12] = Binding affinity to biotin-labeled cardiolipin (unknown origin) by biolayer interferometry
Staphylococcus aureus [13] = assay: Induction of matured biofilm eradication in methicillin resistant Staphylococcus aureus YUSA145 assessed as log reduction in bacterial count in biofilm at 8 MIC incubated for 48 hrs in presence of daptomycin by agar plate method; format: functional
Staphylococcus aureus [14] = assay: Synergistic antibacterial activity against methicillin resistant Staphylococcus aureus USA300 in presence of vancomycin; format: functional, organism-based
Staphylococcus aureus [15] = assay: Antibacterial activity against methicillin sensitive Staphylococcus aureus SA113 assessed as reduction in membrane fluidity at 1 to 4 times MIC incubated for 30 mins by fluorescence based assay; format: functional, organism-based
[16] = test system: Staphylococcus epidermidis; assay: Synergistic bactericidal activity against Staphylococcus epidermidis SE1457 assessed as planktonic cells killing by measuring log reduction in bacterial count at 8 times MIC measured after 24 hrs in presence of daptomycin; format: functional
Enterococcus faecium = assay: Bactericidal activity against Enterococcus faecium EFM64; format: functional
Escherichia coli = assay: Antibacterial activity against Escherichia coli; format: functional, organism-based
Enterococcus faecalis [17] = assay: Bactericidal activity against Enterococcus faecalis OG1RF; format: functional
[18] = test system: Staphylococcus epidermidis; assay: Synergistic antibacterial activity against Staphylococcus epidermidis SE1457 assessed as fractional inhibitory concentration index in presence of daptomycin; format: functional
[19] = test system: Staphylococcus epidermidis; assay: Inhibition of biofilm formation in Staphylococcus epidermidis SE1457 at 1/2 MIC incubated for 16 hrs by SEM analysis; format: functional, organism-based
Staphylococcus aureus [20] = assay: Antibacterial activity against methicillin sensitive Staphylococcus aureus SA113 assessed as fold increase in MIC in presence of cardiolipin by chequerboard microdilution assay; format: functional
[21] = test system: Staphylococcus epidermidis; assay: Synergistic antibacterial activity against Staphylococcus epidermidis SE1457 in presence of vancomycin; format: functional, organism-based
Staphylococcus aureus [22] = assay: Inhibition of bacterial growth in methicillin sensitive Staphylococcus aureus SA113 at 1/2 MIC concentration measured upto 16 hrs; format: functional, organism-based
Staphylococcus aureus [23] = assay: Downregulation of arcC2 expression level in methicillin sensitive Staphylococcus aureus SA113 at 1/2 MIC incubated for 2 hrs by MS/MS analysis; format: functional
Staphylococcus aureus [24] = assay: Downregulation of arcC1 expression level in methicillin sensitive Staphylococcus aureus SA113 at 1/2 MIC incubated for 2 hrs by MS/MS analysis; format: functional
[25] = test system: Staphylococcus epidermidis; assay: Antibacterial activity against methicillin resistant Staphylococcus epidermidis SE1457 infected in BALB/c mouse wound model assessed as log reduction in wound bacterial load at 20 mg/kg, ip administered every 12 hrs for 3 times and measured after 48 hrs; format: functional
Staphylococcus aureus [26] = assay: Downregulation of pflA gene expression level in methicillin sensitive Staphylococcus aureus SA113 at 1/2 MIC by RT-qPCR analysis; format: functional
[27] = Toxicity in BALB/c mouse assessed as apparent tissue damage at 50 mg/kg, ip measured after 1 to 3 days; format: organism-based; settings: in vivo, time 1-3 day
Staphylococcus aureus [28] = assay: Inhibition of bacterial growth in methicillin resistant Staphylococcus aureus USA300 at MIC concentration measured upto 16 hrs; format: functional
Staphylococcus aureus [29] = assay: Antibacterial activity against methicillin sensitive Staphylococcus aureus SA113 in presence of oleic acid; format: functional, organism-based
[30] = Toxicity in BALB/c mouse assessed as change in CREA level at 50 mg/kg, ip measured after 1 to 3 days; format: organism-based; settings: in vivo, time 1-3 day
[31] = test system: Staphylococcus epidermidis; assay: Induction of matured biofilm eradication in Staphylococcus epidermidis SE1457 assessed as log reduction in bacterial count in biofilm at 8 times MIC incubated for 48 hrs in presence of daptomycin by agar plate method; format: functional
[32] = test system: Staphylococcus epidermidis; assay: Bactericidal activity against Staphylococcus epidermidis SE1457; format: functional
Staphylococcus aureus [33] = assay: Bactericidal activity against Staphylococcus aureus SA113; format: functional
Staphylococcus aureus [34] = assay: Antibacterial activity against methicillin resistant Staphylococcus aureus […] infected in BALB/c mouse wound model assessed as log reduction in wound bacterial load at 20 mg/kg, ip administered every 12 hrs for 3 times and measured after 48 hrs in presence of DAP; format: functional
Staphylococcus aureus [35] = assay: Downregulation of fructosre-1, 6-diphosphate level in methicillin sensitive Staphylococcus aureus SA113 at 1/2 MIC incubated for 30 mins; format: functional
[36] = Toxicity in BALB/c mouse assessed as change in ALT level at 50 mg/kg, ip measured after 1 to 3 days; format: organism-based; settings: in vivo, time 1-3 day
[37] = Toxicity in BALB/c mouse assessed as change in BUN level at 50 mg/kg, ip measured after 1 to 3 days; format: organism-based; settings: in vivo, time 1-3 day
[38] = Hemolytic activity against human erythrocytes measured after 1 hr; format: toxicity, cell-based, Erythrocyte
[39] = test system: Staphylococcus epidermidis; assay: Antibacterial activity against Staphylococcus epidermidis SE1457 in presence of oleic acid; format: functional, organism-based
[40] = test system: Staphylococcus epidermidis; assay: Induction of matured biofilm eradication in Staphylococcus epidermidis SE1457 assessed as log reduction in bacterial count in biofilm at 8 times MIC incubated for 48 hrs by agar plate method; format: functional
Staphylococcus aureus [41] = assay: Synergistic bactericidal activity against Staphylococcus aureus USA300 assessed as planktonic cells killing by measuring log reduction in bacterial count at 8 times MIC measured after 24 hrs in presence of daptomycin; format: functional
Enterococcus faecalis [42] = assay: Antibacterial activity against Enterococcus faecalis OG1RF by broth microdilution method; format: functional
Staphylococcus aureus [43] = assay: Antibacterial activity against methicillin sensitive Staphylococcus aureus SA113 assessed as fold increase in MIC in presence of phosphatidyl glycerol by chequerboard microdilution assay; format: functional

O=C(C1=C(O)C(=O)N(c2nnc(SCc3ccccc3Cl)s2)C1c1ccccc1O)c1cc2ccccc2o1 (stereo unspecified)
inhibition (INH) [1]: 100% | Activity [2]: Non-Toxic | log(activity) [3]: 3 | Activity (Staphylococcus aureus [4]): inactive | Activity (Staphylococcus aureus [5]): Active | fold change (FC) (Staphylococcus aureus [6]): 16 | inhibition (Staphylococcus aureus [7]): Active | Activity [8]: Non-Toxic | MIC (Staphylococcus aureus [9]): 12.5 µM (≈ 7.2 µg/mL) | log(activity) (Staphylococcus aureus [10]): 3.5 | Activity (Staphylococcus aureus [11]): Active | Kd [12]: 44.1 µM | log(activity) (Staphylococcus aureus [13]): 3 | Activity (Staphylococcus aureus [14]): inactive | Activity (Staphylococcus aureus [15]): Active | log(activity) [16]: 4.5 | MBC (Enterococcus faecium): 100 µM (≈ 57.6 µg/mL) | Activity (Escherichia coli): Active | MBC (Enterococcus faecalis [17]): 100 µM (≈ 57.6 µg/mL) | fractional inhibitory concentration index (FICI) [18]: <=0.5 | inhibition [19]: Active | fold change (FC) (Staphylococcus aureus [20]): 16 | Activity [21]: inactive | growth inhibition (GI) (Staphylococcus aureus [22]): Active | Activity (Staphylococcus aureus [23]): Active | Activity (Staphylococcus aureus [24]): Active | log(activity) [25]: 1 | Activity (Staphylococcus aureus [26]): Active | Activity [27]: Non-Toxic | inhibition (INH) (Staphylococcus aureus [28]): 100% | Activity (Staphylococcus aureus [29]): inactive | Activity [30]: Non-Toxic | log(activity) [31]: 3 | MBC [32]: 25 µM (≈ 14.4 µg/mL) | MBC (Staphylococcus aureus [33]): 25 µM (≈ 14.4 µg/mL) | log(activity) (Staphylococcus aureus [34]): 3.5 | Activity (Staphylococcus aureus [35]): Active | Activity [36]: Non-Toxic | Activity [37]: Non-Toxic | HC50 at 1 h [38]: > 200 µM | Activity [39]: inactive | log(activity) [40]: 1 | log(activity) (Staphylococcus aureus [41]): 4.5 | MIC50 (Enterococcus faecalis [42]): ≥ 50 µM | MIC90 (Enterococcus faecalis [42]): ≥ 50 µM | fold change (FC) (Staphylococcus aureus [43]): 16
